Activity calls are given as the source filed them.
Columns and labels:
Assay type in all cases: functional
Fatty acid synthase [1] = biological target: T1, Fatty acid synthase (Homo sapiens, UniProt P49327); test: inhibition of human FAS-TE enzyme activity – biochemical, kinetic fluorescence intensity, dose response (AID 624326);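 further: rate of fluorescence rise from hydrolysis of a fluorogenic O-methyl fluorescein ester substrate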
Fatty acid synthase [2] = biological target: T1, Fatty acid synthase; test: inhibition of human FAS-TE enzyme activity – biochemical, endpoint fluorescence intensity, uHTS hits, dose response (AID 624327);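 further: fluorescence from hydrolysis of an O-methyl fluorescein acyl ester substrate by the enzyme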
Genome polyprotein = Genome polyprotein (dengue virus type 2, UniProt P29990); test: flavivirus cap methylation enzyme inhibition – biochemical, confirmation dose response, primary screen (AID 588689)
Chain of Genome polyprotein (P29990 2492-3391 limits assumed): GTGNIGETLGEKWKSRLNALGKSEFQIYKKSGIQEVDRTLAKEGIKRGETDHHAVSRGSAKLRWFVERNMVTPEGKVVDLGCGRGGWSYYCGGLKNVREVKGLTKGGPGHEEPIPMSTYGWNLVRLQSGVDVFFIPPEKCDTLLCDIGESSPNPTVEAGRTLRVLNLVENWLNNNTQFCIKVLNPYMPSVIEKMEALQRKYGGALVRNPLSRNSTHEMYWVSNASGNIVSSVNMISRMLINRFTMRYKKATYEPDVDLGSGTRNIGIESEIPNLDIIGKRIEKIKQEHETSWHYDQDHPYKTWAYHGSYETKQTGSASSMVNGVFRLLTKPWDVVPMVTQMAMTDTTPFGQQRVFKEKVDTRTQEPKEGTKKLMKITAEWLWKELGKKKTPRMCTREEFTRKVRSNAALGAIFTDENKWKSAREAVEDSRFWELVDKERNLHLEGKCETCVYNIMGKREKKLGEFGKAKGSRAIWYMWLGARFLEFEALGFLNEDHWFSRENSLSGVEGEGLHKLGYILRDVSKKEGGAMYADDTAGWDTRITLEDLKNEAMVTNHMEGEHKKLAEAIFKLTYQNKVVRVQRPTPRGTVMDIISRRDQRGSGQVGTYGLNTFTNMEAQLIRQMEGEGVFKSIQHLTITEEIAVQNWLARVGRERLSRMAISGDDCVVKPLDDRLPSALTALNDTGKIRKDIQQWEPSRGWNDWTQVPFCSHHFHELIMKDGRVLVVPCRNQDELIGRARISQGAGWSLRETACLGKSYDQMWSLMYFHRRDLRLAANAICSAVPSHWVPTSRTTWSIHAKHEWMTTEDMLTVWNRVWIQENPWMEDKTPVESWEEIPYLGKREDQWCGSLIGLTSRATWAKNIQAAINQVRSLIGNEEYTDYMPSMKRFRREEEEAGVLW

[3] = biological target: T2, Sentrin-specific protease 6 (Homo sapiens, UniProt Q9GZR1);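 further: Luminescence-based dose-response confirmatory assay of SENP6 inhibition, following up an ultra-high-throughput screen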
T2 sequence (Q9GZR1 whole entry): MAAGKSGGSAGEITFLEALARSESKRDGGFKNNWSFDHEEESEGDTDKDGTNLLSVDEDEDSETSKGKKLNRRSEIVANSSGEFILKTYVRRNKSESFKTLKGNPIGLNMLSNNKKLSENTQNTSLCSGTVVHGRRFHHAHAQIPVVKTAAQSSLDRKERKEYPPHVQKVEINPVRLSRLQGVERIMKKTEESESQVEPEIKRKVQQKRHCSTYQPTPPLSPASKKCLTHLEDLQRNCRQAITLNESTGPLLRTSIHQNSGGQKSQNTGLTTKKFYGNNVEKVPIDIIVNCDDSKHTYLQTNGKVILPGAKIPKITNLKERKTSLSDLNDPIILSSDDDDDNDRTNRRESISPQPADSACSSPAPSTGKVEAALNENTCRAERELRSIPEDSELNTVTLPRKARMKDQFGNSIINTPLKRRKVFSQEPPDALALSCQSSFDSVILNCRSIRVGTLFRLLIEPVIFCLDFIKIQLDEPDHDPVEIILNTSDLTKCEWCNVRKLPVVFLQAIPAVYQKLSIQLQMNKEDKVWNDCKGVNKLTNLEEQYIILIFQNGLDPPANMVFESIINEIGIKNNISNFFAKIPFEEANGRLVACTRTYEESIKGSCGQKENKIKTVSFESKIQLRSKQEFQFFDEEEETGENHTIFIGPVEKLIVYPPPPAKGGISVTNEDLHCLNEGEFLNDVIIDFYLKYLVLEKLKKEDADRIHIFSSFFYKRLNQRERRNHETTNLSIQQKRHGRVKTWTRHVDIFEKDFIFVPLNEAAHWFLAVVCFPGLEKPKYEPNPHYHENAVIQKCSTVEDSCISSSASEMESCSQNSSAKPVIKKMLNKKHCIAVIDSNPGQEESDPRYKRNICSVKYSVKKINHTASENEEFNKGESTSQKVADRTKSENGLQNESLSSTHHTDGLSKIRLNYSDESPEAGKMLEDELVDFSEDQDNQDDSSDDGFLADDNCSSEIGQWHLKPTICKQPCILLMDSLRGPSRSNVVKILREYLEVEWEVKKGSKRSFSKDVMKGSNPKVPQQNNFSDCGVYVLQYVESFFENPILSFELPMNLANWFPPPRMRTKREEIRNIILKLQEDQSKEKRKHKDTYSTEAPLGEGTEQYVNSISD

Caspase-3 = biological target: T3, Caspase-3 (Homo sapiens, UniProt P42574);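 further: Dose-response selectivity test against caspase-3 for candidate inhibitors of sentrin-specific proteases (SENPs)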
T3 sequence (P42574 whole entry): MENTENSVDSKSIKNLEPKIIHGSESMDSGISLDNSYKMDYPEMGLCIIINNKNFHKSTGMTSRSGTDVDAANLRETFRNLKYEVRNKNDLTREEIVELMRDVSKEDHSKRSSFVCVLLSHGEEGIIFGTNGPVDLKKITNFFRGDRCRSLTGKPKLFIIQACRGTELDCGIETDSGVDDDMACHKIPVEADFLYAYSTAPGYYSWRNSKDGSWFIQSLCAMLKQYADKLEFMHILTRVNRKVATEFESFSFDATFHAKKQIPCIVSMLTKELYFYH

[4] = biological target: T4, Sentrin-specific protease 8 (Homo sapiens, UniProt Q96LD8);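 further: luminescence read-out of SENP8 inhibition, dose-response confirmation following an ultra-high-throughput screen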
T4 sequence (Q96LD8 whole entry): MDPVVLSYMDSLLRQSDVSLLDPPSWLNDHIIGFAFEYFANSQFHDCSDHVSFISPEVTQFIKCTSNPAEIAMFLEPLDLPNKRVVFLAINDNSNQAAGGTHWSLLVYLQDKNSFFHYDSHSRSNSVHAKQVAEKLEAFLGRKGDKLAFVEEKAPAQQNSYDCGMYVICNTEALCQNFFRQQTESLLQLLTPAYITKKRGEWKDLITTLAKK

[5] = biological target: T5, Sentrin-specific protease 7 (Homo sapiens, UniProt Q9BQF6);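 further: Luminescence-based dose-response confirmation of ultra-high-throughput screening hits, measuring inhibition of SENP7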
T5 sequence (Q9BQF6 whole entry): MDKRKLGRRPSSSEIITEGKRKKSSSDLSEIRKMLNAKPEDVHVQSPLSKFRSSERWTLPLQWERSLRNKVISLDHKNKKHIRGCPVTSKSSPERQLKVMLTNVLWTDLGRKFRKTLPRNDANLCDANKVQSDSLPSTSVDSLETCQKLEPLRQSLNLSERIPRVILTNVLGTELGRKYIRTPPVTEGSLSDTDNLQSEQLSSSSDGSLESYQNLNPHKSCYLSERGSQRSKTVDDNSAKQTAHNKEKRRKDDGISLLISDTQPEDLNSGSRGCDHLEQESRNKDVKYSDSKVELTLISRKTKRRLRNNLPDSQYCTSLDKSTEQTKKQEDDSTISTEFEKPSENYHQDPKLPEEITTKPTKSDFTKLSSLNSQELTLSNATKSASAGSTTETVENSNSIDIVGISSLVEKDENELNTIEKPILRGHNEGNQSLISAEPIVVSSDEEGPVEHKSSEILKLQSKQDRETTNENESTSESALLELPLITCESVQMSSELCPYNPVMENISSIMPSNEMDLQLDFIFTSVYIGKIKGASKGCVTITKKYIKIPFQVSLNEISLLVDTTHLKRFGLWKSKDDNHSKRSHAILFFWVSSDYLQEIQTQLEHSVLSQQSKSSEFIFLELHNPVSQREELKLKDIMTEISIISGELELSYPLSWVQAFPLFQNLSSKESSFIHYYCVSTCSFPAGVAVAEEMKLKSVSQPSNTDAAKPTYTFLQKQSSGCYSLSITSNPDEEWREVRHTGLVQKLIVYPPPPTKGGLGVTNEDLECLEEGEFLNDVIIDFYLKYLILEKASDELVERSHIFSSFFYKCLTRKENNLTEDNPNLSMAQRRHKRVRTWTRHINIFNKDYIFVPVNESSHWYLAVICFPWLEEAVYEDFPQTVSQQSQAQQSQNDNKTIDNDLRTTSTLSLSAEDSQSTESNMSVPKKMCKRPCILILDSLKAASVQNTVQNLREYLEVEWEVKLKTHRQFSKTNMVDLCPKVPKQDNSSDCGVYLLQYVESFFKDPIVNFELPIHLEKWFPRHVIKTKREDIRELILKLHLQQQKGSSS

Protein RecA = biological target: T6, Protein RecA (Mycobacterium tuberculosis, UniProt P9WHJ3); test: Fluorescence Cell-Free Homogeneous Dose Retest to Identify Inhibitors of RecA-Intein Splicing Activity. [Related pubchem assays (depositor defined):AID2097, AID2223, AID489010, AID492950]
T6 sequence (P9WHJ3 whole entry): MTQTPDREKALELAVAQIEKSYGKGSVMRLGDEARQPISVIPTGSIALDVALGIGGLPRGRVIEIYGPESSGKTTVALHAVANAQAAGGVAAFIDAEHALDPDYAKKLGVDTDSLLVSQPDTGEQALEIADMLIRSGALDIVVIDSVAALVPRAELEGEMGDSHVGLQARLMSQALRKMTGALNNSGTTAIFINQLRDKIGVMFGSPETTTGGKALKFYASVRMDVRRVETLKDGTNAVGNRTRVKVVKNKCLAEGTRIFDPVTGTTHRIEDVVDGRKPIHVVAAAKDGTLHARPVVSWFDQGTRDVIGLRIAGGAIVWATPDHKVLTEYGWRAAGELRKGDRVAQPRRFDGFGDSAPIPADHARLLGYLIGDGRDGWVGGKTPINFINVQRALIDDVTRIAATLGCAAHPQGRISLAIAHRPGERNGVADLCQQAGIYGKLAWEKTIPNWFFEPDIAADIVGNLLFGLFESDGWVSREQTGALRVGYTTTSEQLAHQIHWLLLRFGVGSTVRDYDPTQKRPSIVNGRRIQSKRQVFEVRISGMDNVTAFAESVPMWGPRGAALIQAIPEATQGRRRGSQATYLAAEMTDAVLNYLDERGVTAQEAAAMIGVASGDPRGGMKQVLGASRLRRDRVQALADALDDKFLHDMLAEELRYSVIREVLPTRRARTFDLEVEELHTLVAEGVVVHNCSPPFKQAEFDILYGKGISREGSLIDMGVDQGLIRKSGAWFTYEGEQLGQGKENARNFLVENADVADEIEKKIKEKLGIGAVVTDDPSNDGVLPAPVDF

[6] = biological target: T7, Replicative DNA helicase DnaB (Mycobacterium tuberculosis, UniProt P9WMR3); test: DnaB intein splicing inhibitors, dose response, biochemical, cell-free fluorescence (AID 449749)
T7 sequence (P9WMR3 whole entry): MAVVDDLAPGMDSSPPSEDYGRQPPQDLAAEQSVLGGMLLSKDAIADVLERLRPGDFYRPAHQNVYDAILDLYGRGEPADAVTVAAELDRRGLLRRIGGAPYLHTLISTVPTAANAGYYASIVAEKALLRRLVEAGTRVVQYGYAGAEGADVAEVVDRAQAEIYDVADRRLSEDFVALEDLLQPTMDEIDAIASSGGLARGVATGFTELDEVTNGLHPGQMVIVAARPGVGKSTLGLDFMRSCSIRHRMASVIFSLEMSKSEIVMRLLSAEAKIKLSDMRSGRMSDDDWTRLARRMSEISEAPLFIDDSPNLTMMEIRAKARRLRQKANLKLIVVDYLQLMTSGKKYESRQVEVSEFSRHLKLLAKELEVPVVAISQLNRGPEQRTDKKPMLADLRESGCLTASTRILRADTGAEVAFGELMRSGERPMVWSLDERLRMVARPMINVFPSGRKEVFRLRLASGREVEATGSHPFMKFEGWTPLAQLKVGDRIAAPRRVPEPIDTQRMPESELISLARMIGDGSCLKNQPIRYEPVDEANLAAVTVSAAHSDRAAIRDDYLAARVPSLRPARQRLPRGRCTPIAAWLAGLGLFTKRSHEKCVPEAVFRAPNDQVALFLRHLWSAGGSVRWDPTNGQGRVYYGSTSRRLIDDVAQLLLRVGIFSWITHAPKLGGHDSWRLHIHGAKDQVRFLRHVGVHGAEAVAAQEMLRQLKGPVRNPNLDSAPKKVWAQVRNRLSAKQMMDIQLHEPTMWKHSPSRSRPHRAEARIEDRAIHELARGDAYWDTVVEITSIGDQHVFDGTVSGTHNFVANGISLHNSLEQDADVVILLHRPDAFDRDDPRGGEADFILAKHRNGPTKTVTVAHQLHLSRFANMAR

T1 sequence (P49327 whole entry): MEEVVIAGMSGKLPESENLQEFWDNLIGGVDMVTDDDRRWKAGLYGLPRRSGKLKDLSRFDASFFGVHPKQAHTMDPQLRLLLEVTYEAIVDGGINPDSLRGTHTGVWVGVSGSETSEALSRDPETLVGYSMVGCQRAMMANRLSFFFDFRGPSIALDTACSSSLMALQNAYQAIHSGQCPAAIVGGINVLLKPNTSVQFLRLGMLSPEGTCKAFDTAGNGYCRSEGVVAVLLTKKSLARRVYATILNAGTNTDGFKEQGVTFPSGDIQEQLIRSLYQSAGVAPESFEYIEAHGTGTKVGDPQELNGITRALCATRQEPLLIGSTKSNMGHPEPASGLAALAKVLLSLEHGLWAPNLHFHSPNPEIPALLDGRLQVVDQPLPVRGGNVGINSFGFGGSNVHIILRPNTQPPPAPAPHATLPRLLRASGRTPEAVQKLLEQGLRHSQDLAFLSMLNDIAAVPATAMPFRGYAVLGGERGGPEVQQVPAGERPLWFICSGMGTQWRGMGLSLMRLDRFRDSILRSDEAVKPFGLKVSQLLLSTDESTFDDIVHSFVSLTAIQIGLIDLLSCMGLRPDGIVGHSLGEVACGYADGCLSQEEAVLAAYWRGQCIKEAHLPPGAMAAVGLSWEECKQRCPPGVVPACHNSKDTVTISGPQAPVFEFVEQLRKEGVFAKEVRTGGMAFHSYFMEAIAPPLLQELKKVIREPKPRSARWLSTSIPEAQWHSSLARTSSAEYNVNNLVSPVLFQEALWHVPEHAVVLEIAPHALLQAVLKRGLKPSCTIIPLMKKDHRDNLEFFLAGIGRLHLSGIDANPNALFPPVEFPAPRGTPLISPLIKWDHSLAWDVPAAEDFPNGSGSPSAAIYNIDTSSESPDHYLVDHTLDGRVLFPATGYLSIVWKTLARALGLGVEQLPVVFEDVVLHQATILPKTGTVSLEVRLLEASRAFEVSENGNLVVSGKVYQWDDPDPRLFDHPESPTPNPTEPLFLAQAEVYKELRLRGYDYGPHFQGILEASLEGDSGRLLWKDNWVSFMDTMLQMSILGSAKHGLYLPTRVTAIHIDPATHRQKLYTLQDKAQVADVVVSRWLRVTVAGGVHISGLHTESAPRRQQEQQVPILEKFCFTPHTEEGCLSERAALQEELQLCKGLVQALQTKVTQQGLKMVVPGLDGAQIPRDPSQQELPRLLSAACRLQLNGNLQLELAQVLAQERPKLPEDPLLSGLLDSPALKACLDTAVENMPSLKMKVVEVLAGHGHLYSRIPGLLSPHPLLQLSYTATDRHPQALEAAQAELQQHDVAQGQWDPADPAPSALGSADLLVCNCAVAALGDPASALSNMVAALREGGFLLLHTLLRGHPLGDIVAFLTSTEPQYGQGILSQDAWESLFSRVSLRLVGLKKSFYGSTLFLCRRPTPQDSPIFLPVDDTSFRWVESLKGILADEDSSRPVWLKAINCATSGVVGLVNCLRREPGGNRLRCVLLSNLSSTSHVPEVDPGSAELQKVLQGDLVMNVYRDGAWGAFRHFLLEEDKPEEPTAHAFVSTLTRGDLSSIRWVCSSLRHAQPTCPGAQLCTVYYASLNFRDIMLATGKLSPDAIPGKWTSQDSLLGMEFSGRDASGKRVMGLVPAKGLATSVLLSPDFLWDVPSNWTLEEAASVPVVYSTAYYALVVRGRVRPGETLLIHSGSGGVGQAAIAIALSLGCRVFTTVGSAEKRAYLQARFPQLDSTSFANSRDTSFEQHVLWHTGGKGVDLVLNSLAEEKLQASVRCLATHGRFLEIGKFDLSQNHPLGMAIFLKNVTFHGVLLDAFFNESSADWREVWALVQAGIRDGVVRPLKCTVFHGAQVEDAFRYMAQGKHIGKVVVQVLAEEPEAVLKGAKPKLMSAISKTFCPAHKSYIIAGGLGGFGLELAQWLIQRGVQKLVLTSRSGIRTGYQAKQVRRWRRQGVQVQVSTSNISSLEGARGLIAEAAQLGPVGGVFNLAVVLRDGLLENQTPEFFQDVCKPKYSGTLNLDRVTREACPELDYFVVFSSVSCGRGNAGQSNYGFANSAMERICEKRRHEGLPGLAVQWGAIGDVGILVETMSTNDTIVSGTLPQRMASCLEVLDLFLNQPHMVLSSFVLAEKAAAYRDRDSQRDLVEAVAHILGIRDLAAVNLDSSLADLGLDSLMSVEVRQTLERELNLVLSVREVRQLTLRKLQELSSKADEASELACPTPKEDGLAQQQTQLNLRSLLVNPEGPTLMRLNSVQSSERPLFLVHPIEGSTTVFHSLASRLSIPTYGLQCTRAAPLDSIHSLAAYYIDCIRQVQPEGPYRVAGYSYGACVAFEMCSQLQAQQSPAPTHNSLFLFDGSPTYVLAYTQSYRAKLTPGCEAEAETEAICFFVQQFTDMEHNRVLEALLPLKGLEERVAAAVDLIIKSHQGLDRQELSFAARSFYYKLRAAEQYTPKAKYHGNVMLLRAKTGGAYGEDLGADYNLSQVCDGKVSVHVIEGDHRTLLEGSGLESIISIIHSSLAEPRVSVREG

Compound	IC50 (Fatty acid synthase [1])	IC50 (Fatty acid synthase [2])	IC50 [3]	IC50 (Caspase-3)	IC50 [4]	IC50 [5]	other results
O=C(Cn1cc([N+](=O)[O-])ccc1=O)N1CCc2ccccc2C1	5.97 µM (active)	3.74 µM (active)					
CCN(CCCNc1cc2c(c(N)c1S(=O)(=O)O)C(=O)c1ccccc1C2=O)c1ccccc1							IC50 (Genome polyprotein): 31.6 µM (active)
CC(C)c1ccc(/N=C/c2c(O)oc3ccccc3c2=O)cc1			30.5 µM (active)	16.9 µM (active)	90.6 µM (active)	3.15 µM (active)	
CC1=NN(c2ccccc2)C(=O)C1=Cc1ccccc1							IC50 (Genome polyprotein): 59.4 µM (active)
O=C(O)c1cccc(NC(=O)c2cccc(S(=O)(=O)Nc3cccc([N+](=O)[O-])c3)c2)c1			9.02 µM (active)	19.2 µM (active)	11.9 µM (active)	5.29 µM (active)	
COCC(C)n1c(C)cc(C(=O)COC(=O)c2n[nH]c3ccccc23)c1C (stereo unspecified)			24.3 µM (active)	16.8 µM (active)	42.9 µM (active)	7.13 µM (active)	
O=c1oc(-c2ccco2)nc2sc3c(c12)CCCCC3	3.45 µM (active)	5.34 µM (active)					
CCOC(=O)CC1=NN(c2ccccc2)C(=O)/C1=C\c1ccc(OC)cc1OC							IC50 (Genome polyprotein): 27.1 µM (active); EC50 (Protein RecA): 0.104 µM (active); AC50 [6]: 0.805 µM (active)
Cc1nc(Cl)sc1C(=O)Nc1ccc2ccccc2c1			23.9 µM (active)	22.7 µM (active)	29.8 µM (active)	7.54 µM (active)	
Cc1nnc(SC(C(=O)Nc2ccc(Cl)c([N+](=O)[O-])c2)c2ccccc2)nc1O (stereo unspecified)	15.9 µM (active)	17.3 µM (active)					
O=C(COC(=O)c1cc([N+](=O)[O-])ccc1NCCO)Nc1ccc2c(c1)OCO2	4.51 µM (active)	2.69 µM (active)					
O=C(CCN1C(=O)/C(=C\c2ccccc2Cl)SC1=S)Nc1cccnc1	6.84 µM (active)	7.21 µM (active)					

From ChEMBL document CHEMBL1201862, “PubChem BioAssay data set” (2004)
